Consider three compounds from patent publication US9603364B2 (Dow AgroSciences LLC, priority 2013, dated 2017).

The structures appear in SMILES notation.

Common to all, as to experiment: General post-emergent herbicidal activity, foliar application
Holding throughout (type): in vivo

One assay concerns Oryza sativa L. (rice). As to conditions: Oryza sativa, 336 h, scored after 14 days, read-out: % Visual Growth Reduction ORYSA; for plant injury at 140 g/ha: 140 g ai/ha; for plant injury at 280 g/ha: 280 g ai/ha. In short, it runs like this:
(§1)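 Compounds in acetone/DMSO (97:3) diluted into aqueous spray with isopropanol, Atplus 411F crop oil and Triton X-155; top rate plus 1/2×–1/16× serial rates applied to foliage, solvent blank as control. Greenhouse, sub-irrigated; visual injury versus untreated plants scored 0–100% (100 = complete kill) after 14 days.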

Another assay deals with Zea mays L. (corn). The note with it: 336 h, scored after 14 days, read-out: % Visual Growth Reduction ZEAMX; for plant injury at 140 g/ha: 140 g ai/ha; for plant injury at 280 g/ha: 280 g ai/ha. In short, it runs like this:
as §1

Assay [1] concerns Echinochloa crus-galli (L.) Beauv. (barnyardgrass). As to conditions: for pest or weed control at 140 g/ha: 140 g ai/ha; for GR80 Value ECHCG: calculated by probit analysis, dose for 80% visual injury, may be extrapolated; for pest or weed control at 280 g/ha: 280 g ai/ha. In short, it runs like this: (§2)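 Visual injury ratings on a scale of 0 (none) to 100% (complete kill), taken 14 days after foliar post-emergence treatment of greenhouse plants and compared with untreated plants, were fitted by probit analysis to give GR20, GR50 and GR80 doses; some GR80 values are extrapolated from the slope. Sprays contained crop oil concentrate and surfactant, with rates from the highest down to 1/16×.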

Assay [2] deals with Helianthus annuus L. (sunflower, common). As to conditions: for pest or weed control at 140 g/ha: 140 g ai/ha; for GR80 Value HELAN: calculated by probit analysis, dose for 80% visual injury, may be extrapolated; for pest or weed control at 280 g/ha: 280 g ai/ha. In short, it runs like this:
as §2

In assay [3] the test system is Euphorbia heterophylla L. (poinsettia, wild). As to conditions: for pest or weed control at 140 g/ha: 140 g ai/ha; for GR80 Value EPHHL: calculated by probit analysis, dose for 80% visual injury, may be extrapolated; for pest or weed control at 280 g/ha: 280 g ai/ha. In short, it runs like this: as §2
Assay [4] has as its system Amaranthus retroflexus L. (pigweed, redroot). The note with it: for pest or weed control at 140 g/ha: 140 g ai/ha; for GR80 Value AMARE: calculated by probit analysis, dose for 80% visual injury, may be extrapolated; for pest or weed control at 280 g/ha: 280 g ai/ha. In short, it runs like this: as §2
The test system of assay [5] is Chenopodium album L. (lambsquarters, common). The note with it: for pest or weed control at 140 g/ha: 140 g ai/ha; for GR80 Value CHEAL: calculated by probit analysis, dose for 80% visual injury, may be extrapolated; for pest or weed control at 280 g/ha: 280 g ai/ha. The gist of the method:
as §2

Assay [6] concerns Viola tricolor L. (pansy). As to conditions: for pest or weed control at 140 g/ha: 140 g ai/ha; for GR80 Value VIOTR: calculated by probit analysis, dose for 80% visual injury, may be extrapolated; for pest or weed control at 280 g/ha: 280 g ai/ha. In short, it runs like this: as §2
The mark [7] stands for this setting: Echinochloa crus-galli, 336 h, foliar post-emergent, scored after 14 days, read-out: % Visual Growth Reduction ECHCG.
Setting [8] is: Helianthus annuus, 336 h, foliar post-emergent, scored after 14 days, read-out: % Visual Growth Reduction HELAN.
Where [9] appears, read: Euphorbia heterophylla, 336 h, foliar post-emergent, scored after 14 days, read-out: % Visual Growth Reduction EPHHL.
Where [10] appears, read: Amaranthus retroflexus, 336 h, foliar post-emergent, scored after 14 days, read-out: % Visual Growth Reduction AMARE.
[11] abbreviates: Chenopodium album, 336 h, foliar post-emergent, scored after 14 days, read-out: % Visual Growth Reduction CHEAL.
[12] abbreviates: Viola tricolor, 336 h, foliar post-emergent, scored after 14 days, read-out: % Visual Growth Reduction VIOTR.

Turning to `COC(=O)c1nc(C(C)F)c(F)c(N)c1Cl` (stereo not drawn) [Compound F15, Methyl 4-amino-3-chloro-5-fluoro-6-(1-fluoroethyl)picolinate], the plant injury at 35 g/ha with Oryza sativa L. (rice) (35 g ai/ha) and with Zea mays L. (corn) (35 g ai/ha) was 0% each time. Further, the plant injury at 70 g/ha in the assay on Oryza sativa L. (rice) (70 g ai/ha) and in the assay on Zea mays L. (corn) (70 g ai/ha) was 0% in each case. The plant injury at 140 g/ha in the assay with Oryza sativa L. (rice) and in the assay on Zea mays L. (corn) was 0% in each case. In addition, the pest or weed control at 35 g/ha came to 0% in assay [1] (Echinochloa crus-galli, 336 h, 35 g ai/ha, foliar post-emergent, scored after 14 days, read-out: % Visual Growth Reduction ECHCG); 80% in assay [2] (Helianthus annuus, 336 h, 35 g ai/ha, foliar post-emergent, scored after 14 days, read-out: % Visual Growth Reduction HELAN); 55% in assay [3] (Euphorbia heterophylla, 336 h, 35 g ai/ha, foliar post-emergent, scored after 14 days, read-out: % Visual Growth Reduction EPHHL); 90% in assay [4] (Amaranthus retroflexus, 336 h, 35 g ai/ha, foliar post-emergent, scored after 14 days, read-out: % Visual Growth Reduction AMARE); 80% in assay [5] (Chenopodium album, 336 h, 35 g ai/ha, foliar post-emergent, scored after 14 days, read-out: % Visual Growth Reduction CHEAL); 25% in assay [6] (Viola tricolor, 336 h, 35 g ai/ha, foliar post-emergent, scored after 14 days, read-out: % Visual Growth Reduction VIOTR). Moreover, the pest or weed control at 70 g/ha came to 20% in assay [1] (Echinochloa crus-galli, 336 h, 70 g ai/ha, foliar post-emergent, scored after 14 days, read-out: % Visual Growth Reduction ECHCG); 90% in assay [2] (Helianthus annuus, 336 h, 70 g ai/ha, foliar post-emergent, scored after 14 days, read-out: % Visual Growth Reduction HELAN); 85% in assay [3] (Euphorbia heterophylla, 336 h, 70 g ai/ha, foliar post-emergent, scored after 14 days, read-out: % Visual Growth Reduction EPHHL); 90% in assay [4] (Amaranthus retroflexus, 336 h, 70 g ai/ha, foliar post-emergent, scored after 14 days, read-out: % Visual Growth Reduction AMARE); 85% in assay [5] (Chenopodium album, 336 h, 70 g ai/ha, foliar post-emergent, scored after 14 days, read-out: % Visual Growth Reduction CHEAL); 45% in assay [6] (Viola tricolor, 336 h, 70 g ai/ha, foliar post-emergent, scored after 14 days, read-out: % Visual Growth Reduction VIOTR). Moreover, the pest or weed control at 140 g/ha in assay [1] (setting [7]) is 30%; in assay [2] (setting [8]), 100%; in assay [3] (setting [9]), 90%; in assay [4] (setting [10]), 95%; in assay [5] (setting [11]) it was 80%; in assay [6] (setting [12]), 55%. For the same compound, in assay [1], the “GR80 Value ECHCG” value is on record as greater than 140 g ai/ha. Moreover, the “GR80 Value HELAN” value in assay [2] is recorded as 24.4 g ai/ha. Besides, the “GR80 Value EPHHL” value in assay [3] is 75.1 g ai/ha. Moreover, in assay [4], the “GR80 Value AMARE” value is on record as 22.3 g ai/ha. Further, in assay [5], the “GR80 Value CHEAL” value was 48.6 g ai/ha. Further, the “GR80 Value VIOTR” value in assay [6] is given as greater than 140 g ai/ha.
Regarding `COC(=O)c1nc(CCC(F)(F)F)c(Cl)c(N)c1Cl` [Compound F5, methyl 4-amino-3,5-dichloro-6-(3,3,3-trifluoropropyl)picolinate], the plant injury at 280 g/ha in the assay with Oryza sativa L. (rice) and with Zea mays L. (corn) was 0% throughout. Moreover, the pest or weed control at 280 g/ha in assay [1] (setting [7]) is 0%; in assay [2] (setting [8]), 60%; in assay [3] (setting [9]) it was 0%; in assay [4] (setting [10]) it was 0%; in assay [5] (setting [11]), 0%; in assay [6] (setting [12]) it was 0%.
With `Nc1c(F)c(C(F)F)nc(C(=O)O)c1Cl` [Compound F32, 4-Amino-3-chloro-6-(difluoromethyl)-5-fluoropicolinic acid], the plant injury at 140 g/ha in the assay with Oryza sativa L. (rice) and in the assay on Zea mays L. (corn) was 0% each time. Further, the results for the plant injury at 280 g/ha in the assay on Oryza sativa L. (rice) and in the assay with Zea mays L. (corn) were 5% and 10%, respectively. The pest or weed control at 140 g/ha turned out to be 55% in assay [1] (setting [7]); 100% in assay [2] (setting [8]); 30% in assay [3] (setting [9]); 55% in assay [4] (setting [10]); 90% in assay [5] (setting [11]); 5% in assay [6] (setting [12]). For the same compound, the pest or weed control at 280 g/ha in assay [1] (setting [7]) is 60%; in assay [2] (setting [8]) it was 100%; in assay [3] (setting [9]), 50%; in assay [4] (setting [10]), 85%; in assay [5] (setting [11]) it was 100%; in assay [6] (setting [12]), 10%. For the same compound, in assay [1], the “GR80 Value ECHCG” value is reported as 433 g ai/ha. For the same compound, in assay [2], the “GR80 Value HELAN” value is recorded as 40.8 g ai/ha. Moreover, in assay [3], the “GR80 Value EPHHL” value was greater than 280 g ai/ha. Moreover, in assay [4], the “GR80 Value AMARE” value is reported as 251 g ai/ha. Also, the “GR80 Value CHEAL” value in assay [5] is 26.9 g ai/ha. The “GR80 Value VIOTR” value in assay [6] is listed as greater than 280 g ai/ha.
